{"source": "the NIST ThermoML archive (doi:10.1016/j.tca.2017.12.013)", "test": "Molar enthalpy of transition or fusion", "settings": "DSC", "note": "± gives the expanded uncertainty stated by the source.", "data": [{"smiles": "[Ag+].[Ag+].[S-2]", "note": "[silver sulfide]", "values": [{"measurement": "Molar enthalpy of transition or fusion", "setting": "Crystal 2", "value": "1.2 ± 0.6", "unit": "kJ/mol"}, {"measurement": "Molar enthalpy of transition or fusion", "setting": "Crystal 3", "value": "4.2 ± 0.8", "unit": "kJ/mol"}]}]}
